Patent US20120028917A1, “Use Of N-(4-((3-(2-Amino-4-Pyrimidinyl)-2-Pyridinyl)Oxy)Phenyl)-4-(4-Methyl-2-Thienyl)-1-Phthalazinamine In The Treatment Of Antimitotic Agent Resistant Cancer” (Amgen Inc., priority 2009, published 2012)
Read-outs that look alike come from different tables or passages of the source.

Tests used:
RPMI8226 = assay: ≧4N DNA content assay (flow cytometry); format: cell-based, human
Method: (§1) Tumor cells were treated with AMG 900, AZD1152, MK-0457, or PHA-739358 (range concentration varied based on potency) for 24 hours and processed for cell-cycle analysis (DNA staining only) as previously described (1). Cells were analyzed on a LSRII flow cytometer using BD FACS Diva software. The concentration-response curves and corresponding EC50 values were calculated using the percentage of cells with ≧4N DNA content versus the DMSO control.

U226-B1 = assay: ≧4N DNA content assay (flow cytometry); format: cell-based, human; conditions: U226-B1, BCRP −, 24 hours
Method: as §1

MCF-7 = assay: Cellular EC50, additional cell lines (Table 6-B); format: cell-based, human; conditions: MCF-7, Breast
Method: (§2) All high-content cell assays were performed on an ArrayScan VTi HCS Reader (Cellomics). Tumor cell lines were treated with AMG 900, AZD1152, MK-0457, or PHA-739358 (concentration range varied based on potency). The cells were prepared for intracellular staining with an anti-p-histone H3 Ser^10 antibody as previously described (1). Detection was performed with an anti-rabbit IgG-alexa-568 antibody and DAPI. The cellular levels of p-histone H3 were analyzed using Target Activation V2 algorithm (Cellomics) to determine the percentage of positive cells. For the imaging assays, the concentration-response curves and corresponding IC50 and EC50 values were calculated using the percentage of cells affected versus the DMSO control.
as §1

HCT15 = assay: Cellular EC50, additional cell lines (Table 6-B); format: cell-based, human; conditions: P-gp+
Method: as §2, §1

NCI-H460 parental = assay: p-histone H3 fluorescence-based cell imaging assay; design: species or system human; conditions: P-gp −
Method: as §2

MDA-MB-231 parental = assay: p-histone H3 fluorescence-based cell imaging assay; design: species or system human; conditions: P-gp −
Method: as §2

[1] = tested on: NCI-H460 PTX paclitaxel resistant; assay: p-histone H3 fluorescence-based cell imaging assay; design: species or system human; conditions: for EC50: NCI-H460-PTX*, Lung, P-gp+, read-out: Cellular EC50; for IC50: NCI-H460 PTX paclitaxel resistant, P-gp +
Method: as §2

[2] = tested on: MES-SA-Dx5 doxorubicin resistant; assay: p-histone H3 fluorescence-based cell imaging assay; design: species or system human; conditions: for EC50: MES-SA Dx5*, Uterine, P-gp+, read-out: Cellular EC50; for IC50: MES-SA-Dx5 doxorubicin resistant, P-gp +
Method: as §2

MES-SA parental = assay: p-histone H3 fluorescence-based cell imaging assay; design: species or system human; conditions: P-gp −
Method: as §2

[3] = tested on: MDA-MB-231 PTX paclitaxel resistant; assay: p-histone H3 fluorescence-based cell imaging assay; design: species or system human; conditions: for EC50: MDA-MB-231-PTX*, Breast, P-gp+, read-out: Cellular EC50; for IC50: MDA-MB-231 PTX paclitaxel resistant, P-gp +
Method: as §2

SNU499 = assay: Cellular EC50, additional cell lines (Table 6-B); format: cell-based; conditions: Homo sapiens, Liver, P-gp+
Method: as §2, §1

769P = assay: Cellular EC50, additional cell lines (Table 6-B); format: cell-based; conditions: Homo sapiens, Kidney, P-gp+
Method: as §2, §1

HCT116 parental = assay: ≧4N DNA content assay (FIG. 6-A); format: cell-based; conditions: Homo sapiens, HCT-116, 24 hours, read-out: cellular ≧4N DNA content EC50
Method: as §1
(§3) HCT116 cell lines were treated with increasing concentrations of AMG 900 or AZD1152 for 24 hours. Flow cytometry was used to assess the accumulation of cells with ≧4N DNA content expressed as a percentage of the DMSO-treated control (POC). The concentration-response curves and calculated EC50 values were determined from two independent experiments (bars, ±SD).

HCT116 AZD1152-resistant [4] = assay: ≧4N DNA content assay (FIG. 6-A); format: cell-based; conditions: Homo sapiens, HCT-116; HCT116 AZD1152-resistant subline; 24 hours; read-out: cellular ≧4N DNA content EC50
Method: Tumor cell lines were obtained from the American Type Culture Collection (ATCC) unless otherwise specified. The MDA-MB-231-PTX and NCI-H460-PTX cell lines were established by growing the cells in the presence of increasing concentrations of paclitaxel over a period of 6 months. The HCT116 AZD1152-resistant cell line was established by growing the cells in the presence of AZD1152 at 80 nmol/L.
as §1, §3

HCT116 AZD1152-resistant [5] = assay: Colony formation assay (FIG. 6-B); format: cell-based, human; conditions: HCT116 variant subline, at 50 nmol/L
Method: Tumor cell lines were obtained from the American Type Culture Collection (ATCC) unless otherwise specified. The MDA-MB-231-PTX and NCI-H460-PTX cell lines were established by growing the cells in the presence of increasing concentrations of paclitaxel over a period of 6 months. The HCT116 AZD1152-resistant cell line was established by growing the cells in the presence of AZD1152 at 80 nmol/L. Tumor cells were treated with AMG 900, paclitaxel or AZD1152 (0.5, 5, 50 nmol/L) for 48 hours, washed twice with complete media, and cells were re-plated at a density of 5000 cells per well in drug-free complete media. Cells were grown until the DMSO control wells were confluent. Cells were stained with crystal violet dye (Sigma), washed with distilled water, and imaged using a digital scanner (Hewlett-Packard). Colony formation assay was performed with HCT116 cell lines (parental and AZD1152-resistant). Cells were treated with DMSO, AMG 900, AZD1152, or paclitaxel at the indicated concentrations for 48 hours and re-plated in complete media lacking the inhibitor. After the DMSO-treated cells reached confluence, the cells were stained with crystal violet and imaged (duplicate wells).

[6] = Homo sapiens, RPMI-8226, RPMI8226, BCRP +, 24 hours, read-out: ≧4N DNA Content assay, EC50 value
[7] = Homo sapiens, RPMI-8226**, Multiple Myeloma, P-gp− and/or BCRP+, read-out: Cellular EC50

| EC50 (SNU499) [nM] | EC50 (769P) [nM] | EC50 (RPMI8226; [6]) [nM] | EC50 (RPMI8226; [7]) [nM] | EC50 (U226-B1; Homo sapiens) [nM] | EC50 (MCF-7; Homo sapiens, MCF7) [nM] | EC50 (HCT15; Homo sapiens, HCT-15, Colon) [nM] | EC50 ([1]; Homo sapiens) [nM] | IC50 ([1]; Homo sapiens) [nM] | EC50 ([2]; Homo sapiens) [nM] | IC50 ([2]; Homo sapiens) [nM] | EC50 ([3]; Homo sapiens) [nM] | IC50 ([3]; Homo sapiens) [nM] | SMILES | IC50 (NCI-H460 parental; Homo sapiens) [nM] | IC50 (MDA-MB-231 parental; Homo sapiens) [nM] | IC50 (MES-SA parental; Homo sapiens) [nM] | further results |
| --- | --- | --- | --- | --- | --- | --- | --- | --- | --- | --- | --- | --- | --- | --- | --- | --- | --- |
| – | – | – | – | – | – | – | – | – | – | – | – | – | Cc1cc(Nc2cc(N3CCN(C)CC3)nc(Sc3ccc(NC(=O)C4CC4)cc3)n2)n[nH]1 [MK-0457] | – | – | – | EC50 (RPMI8226; RPMI8226, BCRP +, 24 hours, read-out: ≧4N DNA Content assay, EC50 value): 162 nM; EC50 (RPMI8226; RPMI-8226**, Multiple Myeloma, P-gp− and/or BCRP+, read-out: Cellular EC50): 162 nM; EC50 (U226-B1): 46 nM; EC50 (MCF-7): 27 nM; EC50 (HCT15; Colon): 908 nM; IC50 (NCI-H460 parental): 123 nM; IC50 (MDA-MB-231 parental): 43 nM; EC50 [1]: 468 nM; IC50 [1]: 468 nM; EC50 [2]: > 1250 nM; IC50 [2]: > 1250 nM; IC50 (MES-SA parental): 51 nM; EC50 [3]: 277 nM; IC50 [3]: 277 nM |
| > 1250 | 703 | 865 | 865 | 12 | 11 | > 625 | > 500 | > 500 | > 500 | > 500 | > 500 | > 500 | CCN(CCCOc1ccc2c(Nc3cc(CC(=O)Nc4cccc(F)c4)n[nH]3)ncnc2c1)CCOP(=O)(O)O [AZD1152] | 131 | 16 | 51 | EC50 (HCT116 parental): 34 nM; EC50 (HCT116 AZD1152-resistant [4]): 672 nM; sensitivity in colony formation (HCT116 AZD1152-resistant [5]): insensitive |
| > 1250 | > 1250 | > 1250 | > 1250 | 67 | 68 | > 1250 | > 1250 | > 1250 | > 1250 | > 1250 | > 1250 | > 1250 | CO[C@@H](C(=O)N1Cc2n[nH]c(NC(=O)c3ccc(N4CCN(C)CC4)cc3)c2C1)c1ccccc1 [PHA-739358] | 510 | 49 | 113 | – |
